According to patent US7045516B1, “Benzoxazole derivatives and drugs containing the same as the active ingredient” (Koichi Shudo, priority 1998, dated 2006):
Where two headings read alike, the source gives them in different places.

How the values were obtained:
5-HT3 receptor = biological target: T1, 5-HT3 receptor (Cavia porcellus, UniProt O70212); experiment: Test for 5-HT3 receptor activating action and antagonism, guinea pig ileum longitudinal muscle contraction; assay type: cell-based; settings: for inhibition at 10 µM: inhibitory ratio of contraction by 10 μM 5-HT in sample treated beforehand with 10 μM compound, guinea pig ileum longitudinal muscle; for EC50: negative logarithm of molar concentration giving 50% maximum contraction, read-out: Activating action pD2 (converted); for Activating action i.a.: ratio of maximum contraction by compound relative to maximum contraction with 10 μM 5-HT (defined as 1)
T1 construct: From ileum of Hartley male guinea pigs (500 g to 800 g) longitudinal muscle samples of about 20 mm were prepared; from tissue; host or cells: guinea pig ileum longitudinal muscle
T1 sequence (O70212 20-490): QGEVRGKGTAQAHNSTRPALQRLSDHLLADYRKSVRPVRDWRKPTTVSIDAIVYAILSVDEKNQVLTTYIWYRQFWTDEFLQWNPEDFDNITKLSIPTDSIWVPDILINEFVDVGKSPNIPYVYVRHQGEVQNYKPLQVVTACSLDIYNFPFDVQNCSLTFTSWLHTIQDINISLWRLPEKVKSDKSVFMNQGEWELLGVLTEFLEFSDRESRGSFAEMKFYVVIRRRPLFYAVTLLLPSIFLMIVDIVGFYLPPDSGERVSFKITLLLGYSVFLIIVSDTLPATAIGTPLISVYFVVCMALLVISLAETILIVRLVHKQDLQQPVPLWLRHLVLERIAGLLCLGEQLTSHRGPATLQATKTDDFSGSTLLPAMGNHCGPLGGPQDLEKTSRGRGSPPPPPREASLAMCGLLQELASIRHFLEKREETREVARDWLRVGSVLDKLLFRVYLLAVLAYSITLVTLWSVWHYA
Experimental: From ileum of Hartley male guinea pigs (500 g to 800 g) longitudinal muscle samples of about 20 mm were prepared. The samples were suspended at a resting tension of about 0.5 g in Magnus tubes, and isometric contraction reaction was measured. The samples were treated beforehand twice with 0.3 μM of 5-HT for 1 hour to desensitize the 5-HT4 receptors, and then given with 5-HT at a concentration of 0.1 to 30 μM to examine dose-dependent contraction reaction via the 5-HT3 receptors. […] The index of the 5-HT3 receptor activating action, i.a., is represented as a ratio of the maximum reaction obtained by each compound relative to the maximum contraction reaction obtained with 10 μM of 5-HT, which is defined to be 1. The index of strength of binding with the 5-HT3 receptor, pD2, is represented with a negative logarithmic value of a concentration (molar concentration) that gave 50% maximum contraction reaction for each compound. As for the antagonistic activity of each compound against the 5-HT3 receptor, inhibitory ratio was calculated, which represents a ratio of contraction obtained by applying 10 μM of 5-HT to a sample treated beforehand with 10 μM of each compound relative to the contraction obtained by applying 10 μM of 5-HT to an untreated sample.

Reverse mutation test = experiment: Reverse mutation test
Experimental: A reverse mutagenicity test was performed using the compound of Example 1 (b) of the present specification, hydrochloride of 5,7-dimethyl-2-(1-piperazinyl)benzoxazole (C), hydrochloride of 5-chloro-7-methyl-2-(4-methyl-1-piperazinyl)benzoxazole (D), and hydrochloride of 5-chloro-7-methyl-2-(4-methyl-1-homopiperazinyl) benzoxazole (E) (compounds disclosed in Japanese Patent Publication (KOKAI) No. 10-29987/1998), and the compound described in Reference Example 4 of the present specification, i.e., hydrochloride of 5-chloro-7-methyl-2-(1-piperazinyl) benzoxazole (F) according to the method of T. Matsushima et al. (Noropoth K. H., Springer, Berlin-Heidelberg-New York, “Short-Term Test Systems For Detecting Carcinogens”, pp. 273–285, 1980) referred by the guideline 471 of ORGANIZATION FOR ECONOMIC CO-OPERATION AND DEVELOPMENT.

[1] = Metabolic activity in human liver, in vitro system with S9 fraction; assay type: in vitro ADME; settings: 50 μmol/L test compound, 1 mg/mL human liver S9, NADPH production system, 37 °C, 15 minutes
Experimental: The test was performed in an in vitro system utilizing human liver S9 fraction in the presence of an NADPH production system described below. A reaction mixture of a total volume of 125 μL containing components at given final concentrations was prepared (50 μmol/L of test compound, 6 mmol/L of MgCl2.6H2O, 1 mmol/L of β-NADP^+, 10 mmol/L of glucose-6-phosphate (G-6-P), 0.7 U/mL of G-6-P dehydrogenase, 100 mmol/L of potassium phosphate (pH 7.4), 0.1 mmol/L of EDTANa2, and 1 mg/mL of human liver S9), and incubated at 37 C.° for 15 minutes. The reaction was stopped by the addition of 125 μL of N,N-dimethylformamide containing a substance for internal standard. The reaction mixture was centrifuged (2,000×g, 10 minutes), and the supernatant was subjected to HPLC analysis to determine the concentration of unchanged substance. Consumed amount was calculated from the concentration of unchanged substance, and the metabolic rate was represented as activity per unit amount of protein.

[2] = tested on: large bowel transportation ability of normal mice; experiment: Effect on large bowel transportation ability of normal mice (glass bead excretion); assay type: in vivo, mouse; settings: ddY male mice, bead inserted after 30 minutes
Experimental: G. et al. [Drug Dev. Res., 9, 241-247, (1986)] was determined as follows. Each test compound was orally administered to 5- to 7-week old ddY male mice starved for about 4 hours. […] After the insertion of the glass bead, time (second) from the insertion to excretion of the bead from the anus was measured, and the time was used as an index of large bowel transportation ability. The test was performed by using groups of mice each consisting of 9 to 11 mice, and all of the procedures were performed under no anesthesia.

[3] = tested on: rat diarrhea under restriction stress; experiment: Inhibitory action for rat diarrhea under restriction stress; assay type: in vivo; settings: oral, 30 min before restraint, male Wistar rats, 3 hours, nonlinear least square method
Experimental: L. Williams et al. [GASTROENTEROLOGY, 94, 611–621 (1988)] was determined as follows, and the results were analyzed by the nonlinear least square method. 8-Week old male Wistar rats were starved from the evening of the day before the test. Each test compound was orally administered to the rats. After 30 minutes, the rats were constrained by binding of their fore-limbs and hind-limbs with wires. The rats were left in individual gages on white sheets under luminescent lamps for 3 hours. […] The test was performed with groups of rats each consisting of 8 rats.

[4] = method of Matsushima et al., OECD guideline 471

| SMILES | inhibition at 10 µM (5-HT3 receptor) [%] | EC50 (5-HT3 receptor) [nM] | Activating action i.a. (5-HT3 receptor) | other results |
| --- | --- | --- | --- | --- |
| Clc1cc(Cl)c2oc(N3CCCNCC3)nc2c1 [Example 9, 5,7-Dichloro-2-(1-homopiperazinyl) benzoxazole] | 97 | 56.2 | 0.13 | – |
| Cc1c(Cl)cc2nc(N3CCCNCC3)oc2c1Cl [Example 10, 5,7-Dichloro-2-(1-homopiperazinyl)-6-methylbenzoxazole] | 96 | 56.2 | 0.09 | – |
| Cc1cc(C)c2oc(N3CCNCC3)nc2c1 [C, 5,7-dimethyl-2-(1-piperazinyl)benzoxazole, reference compound] | 91 | 70.8 | 0.12 | – |
| COc1cc(Cl)cc2nc(N3CCCNCC3)oc12 [Example 2, 5-Chloro-2-(1-homopiperazinyl)-7-methoxybenzoxazole] | 88 | 295 | 0.36 | – |
| CC(=O)Nc1cc(Cl)cc2nc(N3CCCNCC3)oc12 [Example 6, 7-Acetamino-5-chloro-2-(1-homopiperazinyl)benzoxazole] | 90 | 3980 | 0.35 | – |
| Cc1cc(Cl)cc2nc(N3CCNCC3)oc12.Cl [hydrochloride of Compound F, hydrochloride of 5-chloro-7-methyl-2-(1-piperazinyl) benzoxazole] | – | – | – | reverse mutagenicity (Reverse mutation test; [4]): positive |
| CC(C)C(=O)Nc1cc(Cl)cc2nc(N3CCCNCC3)oc12.Cl [Example 16, 5-Chloro-7-isobutyrylamino-2-(1-homopiperazinyl) benzoxazole hydrochloride] | 15 | 5620 | 0.10 | – |
| CC(C)(C)OC(=O)Nc1cc(Cl)cc2nc(N3CCCNCC3)oc12 [Example 7, 7-(tert-Butyloxycarbonylamino)-5-chloro-2-(1-homopiperazinyl)benzoxazole] | 83 | 2000 | 0.31 | – |
| Cc1c(Cl)cc2nc(N3CCCNCC3)oc2c1C [Example 11, 5-Chloro-2-(1-homopiperazinyl)-6,7-dimethylbenzoxazole] | 89 | 35.5 | 0.14 | – |
| CCc1cc(Cl)cc2nc(N3CCCNCC3)oc12 [Example 4, 5-Chloro-7-ethyl-2-(1-homopiperazinyl) benzoxazole] | 89 | 17.8 | – | – |
| Cc1cc(Cl)cc2nc(N3CCN(C)CC3)oc12 [D, 5-chloro-7-methyl-2-(4-methyl-1-piperazinyl)benzoxazole, reference compound] | 94 | 162 | 0.27 | – |
| Cc1cc2oc(N3CCCNCC3)nc2cc1Cl [Example 3, 5-Chloro-2-(1-homopiperazinyl)-6-methylbenzoxazole] | 88 | 191 | 0.08 | – |
| c1ccc2oc(N3CCCNCC3)nc2c1 [A, 2-(1-homopiperazinyl)benzoxazole, reference compound] | – | 1700 | 0.32 | – |
| Cc1cc(C)c2oc(N3CCN(C)CC3)nc2c1 [B, 5,7-dimethyl-2-(4-methyl-1-piperazinyl) benzoxazole, reference compound] | – | 479 | 0.62 | – |
| Cc1cc(Cl)cc2nc(N3CCNCC3)oc12 [F, 5-chloro-7-methyl-2-(1-piperazinyl)benzoxazole, reference compound] | 90 | 27.5 | 0.14 | – |
| CS(=O)(=O)Nc1cc(Cl)cc2nc(N3CCCNCC3)oc12.Cl [Example 14, 5-Chloro-7-methanesulfonylamino-2-(1-homopiperazinyl) benzoxazole hydrochloride] | 46 | 3390 | 0.13 | – |
| Cc1cc(Cl)cc2nc(N3CCCN(C)CC3)oc12 [E, 5-chloro-7-methyl-2-(4-methyl-1-homopiperazinyl) benzoxazole, reference compound] | 98 | 21.4 | 0.17 | – |
| Cc1cc(Cl)cc2nc(N3CCN(C)CC3)oc12.Cl [Hydrochloride of D, hydrochloride of 5-chloro-7-methyl-2-(4-methyl-1-piperazinyl) benzoxazole] | – | – | – | Metabolic activity [1]: 0.87 nmol/min/mg protein; reverse mutagenicity (Reverse mutation test; [4]): negative |
| Cc1cc(Cl)cc2nc(N3CCCNCC3)oc12 [Example 1 (a), 5-Chloro-2-(1-homopiperazinyl)-7-methylbenzoxazole] | 95 | 33.1 | 0.12 | – |
| Cc1cc(Cl)cc2nc(N3CCCN(C)CC3)oc12.Cl [Hydrochloride of E, hydrochloride of 5-chloro-7-methyl-2-(4-methyl-1-homopiperazinyl)benzoxazole] | – | – | – | time from insertion to excretion of glass bead ([2]; dose 3 mg/kg oral): 271.91 s; time from insertion to excretion of glass bead ([2]; dose 10 mg/kg oral): 318.95 s; time from insertion to excretion of glass bead ([2]; dose 30 mg/kg oral): 248.56 s; reverse mutagenicity (Reverse mutation test): negative; ED50 value [3]: 4.1 µg/kg |
| CN1C2CCCC1CC(NC(=O)c1nn(C)c3ccccc13)C2 (stereo not drawn) [G, Granisetron] | – | – | – | time from insertion to excretion of glass bead ([2]; dose 3 mg/kg oral): 206.44 s; time from insertion to excretion of glass bead ([2]; dose 10 mg/kg oral): 258.47 s; time from insertion to excretion of glass bead ([2]; dose 30 mg/kg oral): 475.93 s; ED50 ([3]; Rattus norvegicus): 0.025 mg/kg |
| Clc1cc(NCc2ccccc2)c2oc(N3CCCNCC3)nc2c1 [Example 12, 7-(Benzylamino)-5-chloro-2-(1-homopiperazinyl) benzoxazole] | 88 | 191 | 0.05 | – |
| Cl.Nc1cc(Cl)cc2nc(N3CCCNCC3)oc12 [Example 8, 7-Amino-5-chloro-2-(1-homopiperazinyl) benzoxazole hydrochloride] | 83 | 437 | 0.55 | – |
